From ChEMBL document CHEMBL6115034, “Pseudonatural Flavonols as Novel Copper Ionophores for NAFLD Intervention via Synergistic Copper Delivery and Flavonoid Activity” (J Med Chem, 2025)
Active and inactive are the calls of the source. The rule behind the calls is not given here.

Key:
[1] = Stability of compound in PBS buffer in presence of EDTA by UV-Vis spectrophotometer analysis; type: physicochemical
[2] = Stability of compound in PBS buffer in presence of histidine by UV-Vis spectrophotometer analysis; type: physicochemical
[3] = Photophysical property of the compound assessed as fluorescence quantum yield; type: physicochemical
[4] = tested on: HeLa; experiment: Induction of copper transporting activity in human HeLa cells assessed as increase in intracellular copper levels by measuring change in fluorescence intensity; type: functional, cell-based
[5] = tested on: HeLa; experiment: Induction of copper transporting activity in human HeLa cells assessed as increase in intracellular copper levels at 0.02 to 20 uM by ICP-MS analysis; type: functional, cell-based; conditions: dose 0.02-20 µM, time <= 24.0 hrs
[6] = tested on: HepG2; experiment: Cytotoxicity against human HepG2 cells assessed as cell viability at 0.1 to 5 uM measured at 24 hrs by MTT assay; type: functional, cell-based; conditions: dose 0.1-5 µM
[7] = tested on: HepG2; experiment: Cytotoxicity against human HepG2 cells assessed as cell viability at 0.1 to 5 uM compound administrated as copper complex measured at 24 hrs by MTT assay; type: functional, cell-based; conditions: dose 0.1-5 µM
[8] = tested on: Hepatocyte; experiment: Cytotoxicity against mouse Hepatocyte assessed as cell viability at 0.1 to 5 uM compound administrated as copper complex measured at 24 hrs by MTT assay; type: toxicity, cell-based; conditions: hepatocytes, dose 0.1-5 µM
[9] = tested on: HepG2; experiment: Anti-NAFLD activity in palmitic acid human HepG2 NAFLD cell model assessed as decrease in lipid droplet level at 5 uM measured at 24 hrs by Oil Red O staining based assay relative to control; type: functional; set-up: scale not given: the % may be the effect or the level left
[10] = tested on: HepG2; experiment: Anti-NAFLD activity in palmitic acid human HepG2 NAFLD cell model assessed as effect on CYP4F11 expression at 0.5 uM incubated for 24 hrs in presence of CuCl2 by mRNA sequencing analysis; type: functional, cell-based
[11] = tested on: HepG2; experiment: Anti-NAFLD activity in palmitic acid human HepG2 NAFLD cell model assessed as effect on HMOX1 expression at 0.5 uM incubated for 24 hrs in presence of CuCl2 by mRNA sequencing analysis; type: functional, cell-based
[12] = tested on: HepG2; experiment: Anti-NAFLD activity in palmitic acid human HepG2 NAFLD cell model assessed as effect on SLC48A1 expression at 0.5 uM incubated for 24 hrs in presence of CuCl2 by mRNA sequencing analysis; type: functional, cell-based
[13] = tested on: HepG2; experiment: Anti-NAFLD activity in palmitic acid human HepG2 NAFLD cell model assessed as downregulation of STEAP4 expression at 0.5 uM incubated for 24 hrs in presence of CuCl2 by mRNA sequencing analysis; type: functional, cell-based
[14] = tested on: HepG2; experiment: Anti-NAFLD activity in palmitic acid human HepG2 NAFLD cell model assessed as upregulation of fatty acid metabolism related genes at 0.5 uM incubated for 24 hrs in presence of CuCl2 by mRNA sequencing analysis; type: functional, cell-based
[15] = tested on: HepG2; experiment: Anti-NAFLD activity in palmitic acid human HepG2 NAFLD cell model assessed as upregulation of CYP4F12 expression at 0.5 uM incubated for 24 hrs in presence of CuCl2 by mRNA sequencing analysis; type: functional, cell-based
[16] = tested on: HepG2; experiment: Anti-NAFLD activity in palmitic acid human HepG2 NAFLD cell model assessed as upregulation of CYP4F11 expression at 0.5 uM incubated for 24 hrs in presence of CuCl2 by mRNA sequencing analysis; type: functional, cell-based
[17] = tested on: HepG2; experiment: Anti-NAFLD activity in palmitic acid human HepG2 NAFLD cell model assessed as upregulation of POR expression at 0.5 uM incubated for 24 hrs in presence of CuCl2 by mRNA sequencing analysis; type: functional, cell-based
[18] = tested on: HepG2; experiment: Anti-NAFLD activity in palmitic acid human HepG2 NAFLD cell model assessed as upregulation of PRDX1 expression at 0.5 uM incubated for 24 hrs in presence of CuCl2 by mRNA sequencing analysis; type: functional, cell-based
[19] = tested on: HepG2; experiment: Anti-NAFLD activity in palmitic acid human HepG2 NAFLD cell model assessed as upregulation of TXN expression at 0.5 uM incubated for 24 hrs in presence of CuCl2 by mRNA sequencing analysis; type: functional, cell-based
[20] = tested on: HepG2; experiment: Anti-NAFLD activity in palmitic acid human HepG2 NAFLD cell model assessed as upregulation of NQO1 expression at 0.5 uM incubated for 24 hrs in presence of CuCl2 by mRNA sequencing analysis; type: functional, cell-based
[21] = tested on: HepG2; experiment: Anti-NAFLD activity in palmitic acid human HepG2 NAFLD cell model assessed as downregulation of STAT3 expression at 0.5 uM incubated for 24 hrs in presence of CuCl2 by mRNA sequencing analysis; type: functional, cell-based
[22] = Toxicity in male C57BL/6 mouse assessed as lung lesion at 125 mg/kg, po compound administrated as copper complex measured for 10 weeks; type: organism-based; conditions: in vivo, 1680 h
[23] = Toxicity in male C57BL/6 mouse assessed as spleen lesion at 125 mg/kg, po compound administrated as copper complex measured for 10 weeks; type: organism-based; conditions: in vivo, 1680 h
[24] = Toxicity in male C57BL/6 mouse assessed as kidney lesion at 125 mg/kg, po compound administrated as copper complex measured for 10 weeks; type: organism-based; conditions: in vivo, 1680 h
[25] = tested on: Mus musculus; experiment: Anti-NAFLD activity in high-fat diet-induced male C57BL/6J mouse model assessed as increase in copper level in serum at 125 mg/kg, po compound administrated as copper complex measured for 10 weeks by ICP-MS analysis; type: functional, organism-based
[26] = Toxicity in male C57BL/6 mouse assessed as change in ALT level at 125 mg/kg, po compound administrated as copper complex measured for 10 weeks; type: organism-based; conditions: in vivo, 1680 h
[27] = tested on: Mus musculus; experiment: Anti-NAFLD activity in high-fat diet-induced male C57BL/6J mouse model assessed as reduction in IL-6 level in liver at 125 mg/kg, po compound administrated as copper complex measured for 10 weeks; type: functional, organism-based
[28] = tested on: Mus musculus; experiment: Anti-NAFLD activity in high-fat diet-induced male C57BL/6J mouse model assessed as increase in glucose level serum at 125 mg/kg, po compound administrated as copper complex measured for 10 weeks; type: functional, organism-based
[29] = tested on: Mus musculus; experiment: Anti-NAFLD activity in high-fat diet-induced male C57BL/6J mouse model assessed as increase in lactate level at 125 mg/kg, po compound administrated as copper complex measured for 10 weeks by LC-MS/MS analysis; type: functional, organism-based
[30] = tested on: Mus musculus; experiment: Anti-NAFLD activity in high-fat diet-induced male C57BL/6J mouse model assessed as increase in malic acid level at 125 mg/kg, po compound administrated as copper complex measured for 10 weeks by LC-MS/MS analysis; type: functional, organism-based
[31] = tested on: Mus musculus; experiment: Anti-NAFLD activity in high-fat diet-induced male C57BL/6J mouse model assessed as increase in Ru5P level in liver at 125 mg/kg, po compound administrated as copper complex measured for 10 weeks by LC-MS/MS analysis; type: functional, organism-based
[32] = tested on: Mus musculus; experiment: Anti-NAFLD activity in high-fat diet-induced male C57BL/6J mouse model assessed as increase in X5P level in liver at 125 mg/kg, po compound administrated as copper complex measured for 10 weeks by LC-MS/MS analysis; type: functional, organism-based
[33] = tested on: Mus musculus; experiment: Anti-NAFLD activity in high-fat diet-induced male C57BL/6J mouse model assessed as increase in E4P level in liver at 125 mg/kg, po compound administrated as copper complex measured for 10 weeks by LC-MS/MS analysis; type: functional, organism-based

O=c1c(O)c(-c2ccc3cccc(O)c3n2)oc2ccccc12
Stability [1]: Stable | Stability [2]: Stable | Activity [3]: 0.199 | Activity [4]: Active | Activity [5]: Time-dependent-effect | Activity [6]: Active | Activity [7]: Active | Activity [8]: Non-toxic | Activity [9]: 61% | Activity [10]: Active | Activity [11]: Active | Activity [12]: Active | Activity [13]: Active | Activity [14]: Active | Activity [15]: Active | Activity [16]: Active | Activity [17]: Active | Activity [18]: Active | Activity [19]: Active | Activity [20]: Active | Activity [21]: Active | Activity [22]: Non-toxic | Activity [23]: Non-toxic | Activity [24]: Non-toxic | Activity [25]: Active | Activity [26]: Non-toxic | Activity [27]: Active | Activity [28]: Active | Activity [29]: Active | Activity [30]: Active | Activity [31]: Active | Activity [32]: Active | Activity [33]: Active
